Assays:
[1] = clinical; details: human, in vivo, iv
[2] = clinical; details: human, in vivo, iv, CL
[3] = clinical; details: human, in vivo, iv, t1/2
[4] = clinical; details: human, in vivo, iv; remark: listed apart in the source
[5] = clinical; details: human, in vivo, iv, Vdss

| Structure (SMILES) | fraction unbound [1] | clearance [2] [mL/min/kg] | half-life [3] [h] | MRT [4] [h] | Vd [5] [L/kg] |
| --- | --- | --- | --- | --- | --- |
| Fc1ccc([C@@H]2CCNC[C@H]2COc2ccc3c(c2)OCO3)cc1 [PAROXETINE] | 0.06 | 18 | 13 | 17 | 18 |
| COc1ccc(Cl)cc1[C@]1(F)C(=O)Nc2cc(C(F)(F)F)ccc21 [FLINDOKALNER] | 0.0038 | 15 | 37 | 11 | 10 |
| CN[C@@H]1[C@@H](O)[C@@H](O[C@@H]2[C@@H](O)[C@H](O[C@H]3OC(CN)=CC[C@H]3N)[C@@H](N)C[C@H]2N)OC[C@]1(C)O [SISOMICIN] | 0.15 | 1 | 2.4 | 3.2 | 0.19 |
| Cc1cccc([C@H](C)c2cnc[nH]2)c1C [DEXMEDETOMIDINE] | 0.06 | 11 | 2.2 | 2.5 | 1.6 |
| CO/N=C(\C(=O)N[C@@H]1C(=O)N2C(C(=O)O)=C(COC(N)=O)CS[C@H]12)c1ccco1 [CEFUROXIME] | 0.12 | 2.2 | 1.1 | 1.1 | 0.15 |
| CCC(=O)OCC(=O)[C@@]1(OC(=O)CC)[C@@H](C)C[C@H]2[C@@H]3CCC4=CC(=O)C=C[C@]4(C)[C@@]3(Cl)[C@@H](O)C[C@@]21C [BECLOMETHASONE DIPROPIONATE] | 0.13 | 36 | 0.5 | 0.1 | 0.29 |
| CC1(C)S[C@@H]2[C@H](NC(=O)[C@H](NC(=O)N3CCN(S(C)(=O)=O)C3=O)c3ccccc3)C(=O)N2[C@H]1C(=O)O [MEZLOCILLIN] | 0.7 | 2.1 | 1.2 | 0.71 | 0.09 |
| O=C(NC1CCN(CCc2c[nH]c3ccccc23)CC1)c1ccccc1 [INDORAMIN] | 0.15 | 20 | 4.3 | 4.1 | 4.9 |
| C#C[C@]1(O)C=C[C@H]2[C@@H]3CCC4=CC(=O)CC[C@@H]4[C@H]3CC[C@@]21CC [GESTODENE] | 0.023 | 0.8 | 10 | 9.6 | 0.46 |
| CCCCC/C=C\CCC(=O)N[C@H]1[C@H](Oc2c3cc4cc2Oc2ccc(cc2Cl)[C@@H](O[C@@H]2O[C@H](CO)[C@@H](O)[C@H](O)[C@H]2NC(C)=O)[C@@H]2NC(=O)[C@H](NC(=O)[C@@H]4NC(=O)[C@H]4NC(=O)[C@@H](Cc5ccc(c(Cl)c5)O3)NC(=O)[C@H](N)c3ccc(O)c(c3)Oc3cc(O)cc4c3)c3ccc(O)c(c3)-c3c(O[C@H]4O[C@H](CO)[C@@H](O)[C@H](O)[C@@H]4O)cc(O)cc3[C@@H](C(=O)O)NC2=O)O[C@H](CO)[C@@H](O)[C@@H]1O [TEICOPLANIN A2-1] | 0.11 | 0.2 | 150 | 140 | 1.5 |
| CCCc1cc(=O)[nH]c(=S)[nH]1 [PROPYLTHIOURACIL] | 0.18 | 3.1 | 1.3 | 1.8 | 0.34 |
| Nc1nc(Cl)nc2c1ncn2[C@H]1C[C@H](O)[C@@H](CO)O1 [CLADRIBINE] | 0.79 | 14 | 16 | 9.2 | 7.7 |
| CC(=O)OCC1=C(C(=O)O)N2C(=O)[C@@H](NC(=O)Cc3cccs3)[C@H]2SC1 [CEPHALOTHIN] | 0.22 | 1.8 | 0.95 | 0.65 | 0.07 |
| C/C=C/C[C@@H](C)C(=O)[C@H]1C(=O)N[C@@H](C(C)C)C(=O)N(C)CC(=O)N(C)[C@@H](CC(C)C)C(=O)N[C@@H](C(C)C)C(=O)N(C)[C@@H](CC(C)C)C(=O)N[C@@H](C)C(=O)N[C@H](C)C(=O)N(C)[C@@H](CC(C)C)C(=O)N(C)[C@@H](CC(C)C)C(=O)N(C)[C@@H](C(C)C)C(=O)N1C [VALSPODAR] | 0.022 | 2.6 | 10 | 12 | 1.8 |
| CC1(C)S[C@@H]2[C@H](NC(=O)Cc3ccccc3)C(=O)N2[C@H]1C(=O)O [PENICILLIN G] | 0.4 | 6.9 | 0.7 | 0.58 | 0.24 |
| C#C[C@]1(O)CC[C@H]2[C@@H]3CCc4cc(OS(=O)(=O)O)ccc4[C@H]3CC[C@@]21C | 0.011 | 4.7 | 8.4 | 8.2 | 2.3 |
| CC(=O)O[C@@]12CO[C@@H]1C[C@H](O)[C@@]1(C)C(=O)[C@H](O)C3=C(C)[C@@H](OC(=O)[C@H](O)[C@@H](NC(=O)OC(C)(C)C)c4ccccc4)C[C@@](O)([C@@H](OC(=O)c4ccccc4)[C@H]21)C3(C)C.O.O.O [DOCETAXEL] | 0.04 | 14 | 11 | 2.5 | 2.1 |
| NCC[C@H](O)C(=O)N[C@@H]1C[C@H](N)[C@@H](O[C@H]2O[C@H](CN)[C@@H](O)[C@H](O)[C@H]2O)[C@H](O)[C@H]1O[C@H]1O[C@H](CO)[C@@H](O)[C@H](N)[C@H]1O [AMIKACIN] | 0.88 | 1.1 | 2.4 | 2.4 | 0.16 |
| O=C1CN=C(c2ccccc2Cl)c2cc(Cl)ccc2N1 [DELORAZEPAM] | 0.051 | 0.17 | 200 | 220 | 2.2 |

| Structure (SMILES) | fraction unbound [1] | clearance [2] [mL/min/kg] | half-life [3] [h] | MRT [4] [h] | Vd [5] [L/kg] |
| --- | --- | --- | --- | --- | --- |
| CCN(CC)CCNC(=O)c1ccc(NC(C)=O)cc1 [ACECAINIDE] | 0.9 | 4 | 6.4 | 7.9 | 1.9 |
| CCCn1c(=O)[nH]c(=O)c2[nH]cnc21 [ENPROFYLLINE] | 0.55 | 4 | 1.8 | 2.6 | 0.63 |
| CN(C)C(=O)CCS[C@H](SCCC(=O)O)c1cccc(/C=C/c2ccc3ccc(Cl)cc3n2)c1 | 0.0004 | 0.68 | 2.3 | 2.7 | 0.11 |
| CO[C@@]1(NC(=O)Cc2cccs2)C(=O)N2C(C(=O)O)=C(COC(N)=O)CS[C@@H]21 [CEFOXITIN] | 0.73 | 3.6 | 0.81 | 0.79 | 0.17 |
| CCCNC(C)C(=O)Nc1ccccc1C (centres undefined) [PRILOCAINE] | 0.72 | 29 | 1.8 | 2.2 | 3.7 |
| Cc1ccc(C(=O)c2cc(O)c(O)c([N+](=O)[O-])c2)cc1 [TOLCAPONE] | 0.0012 | 1.9 | 1.1 | 1.1 | 0.12 |
| O=C1c2cccc3c2[C@H](CCC3)CN1[C@@H]1CN2CCC1CC2 [PALONOSETRON] | 0.38 | 2.6 | 39 | 40 | 6.3 |
| CCCC(C)C1(CC)C(=O)NC(=O)NC1=O (centres undefined) [PENTOBARBITAL] | 0.39 | 0.47 | 22 | 32 | 0.91 |
| CCCC(C)(COC(N)=O)COC(N)=O [MEPROBAMATE] | 1 | 0.6 | 14 | 19 | 0.7 |
| CNC(=O)c1cccc2c(Nc3ccc(NS(C)(=O)=O)cc3OC)c3cccc(C)c3nc12 [ASULACRINE] | 0.0011 | 2.6 | 2.4 | 1.9 | 0.3 |
| C[C@@H](O)[C@H]1C(=O)N2C(C(=O)O)=C(S[C@@H]3CN[C@H](C(=O)Nc4cccc(C(=O)O)c4)C3)[C@H](C)[C@H]12 | 0.1 | 0.45 | 3.8 | 4.4 | 0.12 |
| Nc1ccn([C@@H]2O[C@H](CO)[C@@H](O)C2(F)F)c(=O)n1 [GEMCITABINE] | 1 | 32 | 1 | 0.81 | 1.5 |
| Cc1cn([C@H]2C=C[C@@H](CO)O2)c(=O)[nH]c1=O [STAVUDINE] | 1 | 8.2 | 1.4 | 1.4 | 0.67 |
| COCC(=O)Nc1c(I)c(C(=O)NCC(O)CO)c(I)c(C(=O)N(C)CC(O)CO)c1I (centres undefined) [IOPROMIDE] | 0.99 | 1.4 | 2.6 | 2.6 | 0.22 |
| COc1ccc(C[C@@H]2c3cc(OC)c(OC)cc3CC[N@+]2(C)CCC(=O)OCCCCCOC(=O)CC[N@@+]2(C)CCc3cc(OC)c(OC)cc3[C@H]2Cc2ccc(OC)c(OC)c2)cc1OC | 0.62 | 5.4 | 0.42 | 0.43 | 0.14 |
| CO[C@@]1(NC(=O)C(C(=O)O)c2ccc(O)cc2)C(=O)N2C(C(=O)O)=C(CSc3nnnn3C)CO[C@@H]21 (some centres undefined) [MOXALACTAM] | 0.39 | 0.72 | 2.9 | 3.9 | 0.17 |
| COc1cc(CC2c3c(cc(OC)c(OC)c3OC)CC[N+]2(C)CCCOC(=O)CCC(=O)OCCC[N+]2(C)CCc3cc(OC)c(OC)c(OC)c3C2Cc2cc(OC)c(OC)c(OC)c2)cc(OC)c1OC (centres undefined) [DOXACURIUM] | 0.53 | 2.7 | 1.7 | 1.4 | 0.22 |
| COc1ccc(CC2c3cc(OC)c(OC)cc3CC[N+]2(C)CCC(=O)OCCCCCOC(=O)CC[N+]2(C)CCc3cc(OC)c(OC)cc3C2Cc2ccc(OC)c(OC)c2)cc1OC (centres undefined) | 0.52 | 5.7 | 0.31 | 0.29 | 0.1 |
| COc1ccccc1Oc1c(NS(=O)(=O)c2ccc(C(C)C)cn2)nc(-c2ccnc(-c3nnn[nH]3)c2)nc1OCCO [TEZOSENTAN] | 0.0085 | 8.1 | 3.8 |  | 0.28 |
